Measured values reported in ChEMBL document CHEMBL1275341, “Synthesis and antimalarial activities of rhenium bioorganometallics based on the 4-aminoquinoline structure” (Bioorg Med Chem, 2010).

Legend:
Plasmodium falciparum [1] = test: Antimalarial activity against chloroquine-susceptible Plasmodium falciparum 3D7 infected in human A+ RBC assessed as inhibition of [3H]hypoxanthine uptake after 48 hrs by scintillation counting; format: functional, organism-based
Plasmodium falciparum [2] = test: Antimalarial activity against chloroquine-resistant Plasmodium falciparum W2 infected in human A+ erythrocytes assessed as inhibition of [3H]hypoxanthine uptake after 48 hrs by scintillation counting; format: functional, organism-based

With `Clc1ccc2c(NCCNCc3c4ccccc4cc4ccccc34)ccnc2c1` the IC50 (Plasmodium falciparum [1]) was 84 nM and the IC50 (Plasmodium falciparum [2]) was 797 nM.

For `Clc1ccc2c(NCCNCc3ccc4ccccc4c3)ccnc2c1`, the IC50 (Plasmodium falciparum [1]) was 48 nM and the IC50 (Plasmodium falciparum [2]) was 820 nM.

Molecule `Clc1ccc2c(NCCNCc3cccc4ccccc34)ccnc2c1` has an IC50 (Plasmodium falciparum [1]) of 471 nM and an IC50 (Plasmodium falciparum [2]) of 1200 nM.
